Source: patent publication US6525059B1, “Substituted pyrazoles as p38 kinase inhibitors” (G. D. Searle & Company, priority 1998, dated 2003)
Like-named read-outs stand apart in the source and are kept apart here.

Experiments:
human p38 kinase alpha = molecular target: T1, human p38 kinase alpha (Homo sapiens, UniProt Q16539); assay: p38 kinase in vitro assay, phosphorylation of biotinylated PHAS-I with gamma 32P-ATP; assay type: biochemical
T1 construct: The coding region of the human p38a cDNA was obtained by PCR-amplification from RNA isolated from the human monocyte cell line THP.1; GST (N); made in house; host or cells: E. coli DH10B
How it was run: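 Radiometric filter-capture read-out: streptavidin plates trap biotin-PHAS-I labelled by activated (MKK6) human p38α from γ-32P-ATP. Buffer 25 mM HEPES pH 7.5, 10 mM magnesium acetate, 50 μM cold ATP; reactions 1 h or overnight at 30 °C; inhibitors 10-fold dilutions 100 to 0.001 μM, triplicates, 1% DMSO.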

TNF alpha = assay: Mouse model of LPS-induced TNF alpha production; assay type: in vivo; conditions: for inhibition in vivo at 100 mg/kg: 100 mpk oral gavage
Description: TNF alpha was induced in 10-12 week old BALB/c female mice by tail vein injection with 100 ng lipopolysaccharide (from S. Typhosa) in 0.2 ml saline. One hour later mice were bled from the retroorbital sinus and TNF concentrations in serum from clotted blood were quantified by ELISA.
Efficacy was determined at each time point as percent inhibition of serum TNF levels relative to LPS injected mice that received vehicle only
wherein in the dose is milligram per kilogram (mpk) administered by oral gavage and the predose time indicates the number of hours before LPS challenge when the compound is administered.

TNF-α [1] = assay: LPS stimulation of TNF production by U937 cells; assay type: cell-based, human
How it was run: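 PMA-differentiated human U937 cells (20 ng/ml PMA, 24 h, then 24-48 h rest) at 2 million cells/ml, 0.1% DMSO final, stimulated with E. coli LPS (100 ng/ml final) for 4 h at 37° C. TNF-α in medium measured by ELISA; IC50 in μM.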

[2] = molecular target: T2, human GST-p38 kinase alpha (Homo sapiens, UniProt Q16539); assay: p38 kinase in vitro assay, second format, phosphorylation of EGFRP with 33P-ATP; assay type: biochemical; conditions: EGFRP assay procedure
T2 construct: The coding region of the human p38a cDNA was obtained by PCR-amplification from RNA isolated from the human monocyte cell line THP.1; made in house; host or cells: E. coli DH10B
How it was run: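 Activated human GST-p38α (pre-activated with GST-MKK6, 1 h, 30 °C) phosphorylates EGFR 21-mer peptide (200 μM) with 50 μM ATP plus γ-33P-ATP, pH 7.5, 60 min at room temperature. Unreacted ATP removed by AG 1×8 resin; supernatant scintillation-counted.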

TNF-α [3] = assay: Rat assay: LPS-challenged rats, serum TNF-α by ELISA; assay type: in vivo; conditions: Rattus norvegicus, po, 3 mpk oral gavage, read-out: Rat LPS Model % inhib @ dose @ predose time
[4] = p38α in vitro, PHAS-I assay procedure, read-out: p38^1 IC50
[5] = mouse, oral, 1h before LPS, 30 mpk, read-out: mLPS 1h, 30 mpk percent inhibition
[6] = Homo sapiens, U-937, LPS-stimulated U937 cells, read-out: U937 IC50
[7] = p38α in vitro, read-out: p38^2 IC50
[8] = Mus musculus, -6h before LPS, read-out: Mouse LPS Model % TNF inhib @ dose @ predose time
[9] = Homo sapiens, U-937, TNF production, LPS-stimulated human U937 cells, read-out: U937 Cell IC50
[10] = read-out: P38 alpha kinase IC50
[11] = Mus musculus, 30 mpk oral gavage, -6h before LPS, read-out: Mouse LPS Model % TNF inhib @ dose @ predose time

T2 sequence (Q16539 whole entry): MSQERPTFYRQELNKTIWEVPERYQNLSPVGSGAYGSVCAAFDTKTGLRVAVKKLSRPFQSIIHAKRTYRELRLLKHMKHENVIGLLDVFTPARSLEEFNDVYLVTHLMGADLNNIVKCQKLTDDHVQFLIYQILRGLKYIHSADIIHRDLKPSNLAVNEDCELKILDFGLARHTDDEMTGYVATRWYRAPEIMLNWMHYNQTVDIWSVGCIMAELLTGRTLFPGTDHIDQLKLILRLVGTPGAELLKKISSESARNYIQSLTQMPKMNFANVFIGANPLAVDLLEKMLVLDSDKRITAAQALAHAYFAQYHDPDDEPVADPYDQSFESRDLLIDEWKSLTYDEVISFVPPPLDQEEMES
T1 sequence (Q16539 whole entry): as above

| SMILES | IC50 (TNF-α [1]; [6]) [nM] | IC50 [2, 7] [nM] | inhibition in vivo at 30 mg/kg (TNF alpha; [5]) [%] | other results |
| --- | --- | --- | --- | --- |
| CCC(CO)Nc1cc(-c2c[nH]nc2-c2ccc(F)cc2)ccn1 (centres unmarked) [Example A-213, 2-[[4-[3-(4-fluorophenyl)-1H-pyrazol-4-yl]-2-pyridinyl]amino)-1-butanol] |  | 220 | 57 |  |
| Cn1nc(-c2ccc(F)cc2)c(-c2ccncc2)c1C(O)c1ccccc1 (stereo not drawn) [Example A-217, 3-(4-fluorophenyl)-1-methyl -α-phenyl-4-(4-pyridinyl)-1H-pyrazole-5-methanol] | 349 |  | 9 | IC50 (human p38 kinase alpha; [4]): 697 nM |
| Cn1cc(-c2ccncc2)c(-c2ccc(Cl)cc2)n1 [Example A-232, 4-[3-(4-chlorophenyl)-1-methyl-1H-pyrazol-4-yl]pyridine] |  | 48 | 96 |  |
| c1ccc(-c2n[nH]cc2-c2ccncc2)cc1 [Example A-236, 4-(3-phenyl-1H-pyrazol-4-yl)pyridine] |  |  | 94 | IC50 ([2]; p38^2 IC50, p38α in vitro): 237 nM |
| FC(F)(F)c1cccc(-c2n[nH]cc2-c2ccncc2)c1 [Example A-237, 4-[3-[3-(trifluoromethyl)phenyl]-1H-pyrazol-4-yl]pyridine] | 87 | 93 | 60 |  |
| Fc1cc(-c2c[nH]nc2-c2ccc(Cl)cc2)ccn1 [Example A-240, 4-[3-(4-chlorophenyl)-1H-pyrazol-4-yl]-2-fluoropyridine] |  | 961 | 85 |  |
| Brc1ccc(-c2n[nH]cc2-c2ccncc2)cc1 [Example A-241, 4-[3-(4-bromophenyl)-1H-pyrazol-4yl]pyridine] |  | 338 | 87 |  |
| CC[C@H](C)CNc1cc(-c2c[nH]nc2-c2ccc(Cl)cc2)ccn1 [Example A-245, (S)-4-[3-(4-chlorophenyl)-1H-pyrazol-4-yl]-N-(2-methylbutyl)-2-pyridinamine] | 33.7 | < 1 | 65 |  |
| OCCn1cc(-c2ccnc(CCc3ccc(F)cc3)c2)c(-c2ccc(F)cc2)n1 [Example A-272, 3-(4-fluorophenyl)-4-[2-[2-(4-fluorophenyl)ethyl]-4-pyridinyl]-1H-pyrazole-1-ethanol] | 583 |  | -8 | IC50 (human p38 kinase alpha; [4]): 73 nM |
| CN(C)CCn1cc(-c2ccnc(N(C)C)c2)c(-c2ccc(F)cc2)n1 [Example A-273, 4-[1-[2-(dimethylamino)ethyl]-3-(4-fluorophenyl)-1H-pyrazol-4-yl]-N,N-dimethyl-2-pyridinamine] | > 10000 |  | 43 | IC50 (human p38 kinase alpha; [4]): 6980 nM |
| O=C(NCc1[nH]nc(-c2ccc(F)cc2)c1-c1ccncc1)c1c(F)cc(F)cc1F [Example B-0051] |  |  |  | inhibition in vivo at 3 mg/kg (TNF-α [3]; 4 h, 4h): 79%; inhibition in vivo at 100 mg/kg (TNF alpha; [8]): 47%; IC50 (TNF-α [1]; [9]): 2150 nM |
| CC(Oc1ccccc1)C(=O)NCc1[nH]nc(-c2ccc(F)cc2)c1-c1ccncc1 (centres unmarked) [Example B-0087] |  |  |  | IC50 (human p38 kinase alpha; [10]): 550 nM; inhibition in vivo at 30 mg/kg (TNF alpha; [11]): 38% |
| O=C(COc1ccc(Cl)cc1)NCc1[nH]nc(-c2ccc(F)cc2)c1-c1ccncc1 [Example B-0093] |  |  |  | IC50 (human p38 kinase alpha; [10]): 3180 nM; inhibition in vivo at 30 mg/kg (TNF alpha; [11]): 30%; IC50 (TNF-α [1]; [9]): 1250 nM |
| COc1ccc(S(=O)(=O)NCc2[nH]nc(-c3ccc(F)cc3)c2-c2ccncc2)cc1 [Example B-0117] |  |  |  | IC50 (human p38 kinase alpha; [10]): 460 nM; inhibition in vivo at 30 mg/kg (TNF alpha; [11]): 30%; IC50 (TNF-α [1]; [9]): 1780 nM |
| O=S(=O)(Cc1ccccc1)NCc1[nH]nc(-c2ccc(F)cc2)c1-c1ccncc1 [Example B-0120] |  |  |  | inhibition in vivo at 3 mg/kg (TNF-α [3]; -4 h, -4h before LPS): 70%; IC50 (human p38 kinase alpha; [10]): 8 nM; inhibition in vivo at 100 mg/kg (TNF alpha; [8]): 77%; IC50 (TNF-α [1]; [9]): 210 nM |
| C[C@@H](NC(=O)c1ccccc1I)c1[nH]nc(-c2ccc(F)cc2)c1-c1ccncc1 [Example B-0354] |  |  |  | inhibition in vivo at 3 mg/kg (TNF-α [3]; -4 h, -4h before LPS): 54%; IC50 (human p38 kinase alpha; [10]): 1000 nM; inhibition in vivo at 30 mg/kg (TNF alpha; [11]): 51%; IC50 (TNF-α [1]; [9]): 660 nM |
| C[C@@H](NC(=O)c1ccccc1C(F)(F)F)c1[nH]nc(-c2ccc(F)cc2)c1-c1ccncc1 [Example B-0368] |  |  |  | IC50 (human p38 kinase alpha; [10]): 1000 nM; inhibition in vivo at 30 mg/kg (TNF alpha; [11]): 37%; IC50 (TNF-α [1]; [9]): 640 nM |
| C[C@@H](NS(=O)(=O)c1ccc(F)cc1)c1[nH]nc(-c2ccc(F)cc2)c1-c1ccncc1 [Example B-0385] |  |  |  | inhibition in vivo at 3 mg/kg (TNF-α [3]; -4 h, -4h before LPS): 0%; IC50 (human p38 kinase alpha; [10]): 57 nM; inhibition in vivo at 30 mg/kg (TNF alpha; [11]): 30%; IC50 (TNF-α [1]; [9]): 900 nM |
| Cc1c(-c2ccncc2)c(-c2ccc(F)cc2)nn1CC(=O)NCCc1ccc(Oc2ccccc2)cc1 [Example B-2286] |  |  |  | IC50 (human p38 kinase alpha; [10]): 17 nM; Mouse LPS Model % TNF inhib @ dose @ predose time (TNF alpha; 30 mpk oral gavage, 1 h before LPS challenge): 25% @ 30 mpk @ -1h; IC50 (TNF-α [1]; TNF production, LPS-stimulated human U937 cells, read-out: U937 Cell IC50): 780 nM |

Second part, led by results:

| IC50 (TNF-α [1]; [6]) [nM] | IC50 [2, 7] [nM] | SMILES | inhibition in vivo at 30 mg/kg (TNF alpha; [5]) [%] | other results |
| --- | --- | --- | --- | --- |
| 198 |  | OCCn1cc(-c2ccncc2)c(-c2ccc(F)cc2)n1 [Example A-210, 3-(4-fluorophenyl)-4-(4-pyridinyl)-1H-pyrazole-1-ethanol] | 93 | IC50 (human p38 kinase alpha; [4]): 160 nM |
| 1830 | 18 | Fc1ccc(-c2nn(CCN3CCOCC3)cc2-c2ccncc2)cc1 [Example A-216, 4-[2-[3-(4-fluorophenyl)-4-(4-pyridinyl)-1H-pyrazol-1-yl]ethyl)morpholine] | 91 |  |
|  | 60 | Fc1cccc(-c2n[nH]cc2-c2ccncc2)c1 [Example A-227, 4-[3-(3-fluorophenyl)-1H-pyrazol-4-yl]pyridine] | 96 |  |
| 462 |  | Cn1cc(-c2ccncc2)c(-c2cccc(F)c2)n1 [Example A-229, 4-[3-(3-fluorophenyl)-1-methyl-1H-pyrazol-4-yl]pyridine] | 91 |  |
|  | 178 | Clc1ccc(-c2n[nH]cc2-c2ccncc2)cc1 [Example A-230, 4-[3-(4-chlorophenyl)-1H-pyrazol-4-yl]pyridine] | 96 | IC50 (human p38 kinase alpha; [4]): 420 nM |
| 322 | 174 | Cn1cc(-c2ccncc2)c(-c2ccc3c(c2)OCO3)n1 [Example A-231, 4-[3-(1,3-benzodioxol-5-y)-1-methyl-1H-pyrazol-4-yl]pyridine] | 94 |  |
|  | 34 | Fc1ccc(-c2n[nH]cc2-c2ccncc2)cc1F [Example A-239, 4-[3-(3,4-difluorophenyl)-1H-pyrazol-4-yl]pyridine] | 87 |  |
|  | 47 | Cn1cc(-c2ccncc2)c(-c2ccc(F)c(F)c2)n1 [Example A-242, 4-[3-(3,4-difluorophenyl)-1-methyl-1H-pyrazol-4-yl]pyridine] | 87 |  |
|  | 729 | Cn1cc(-c2ccncc2)c(-c2ccc(Br)cc2)n1 [Example A-243, 4-[3-(4-bromophenyl)-1-methyl-1H-pyrazol-4-yl]pyridine] | 82 |  |
|  | 432 | Fc1ccc(-c2n[nH]cc2-c2ccnc(F)c2)cc1 [Example A-249, 2-fluoro-4-[3-(4-fluorophenyl)-1H-pyrazol-4-yl]pyridine] | 86 |  |
|  | 637 | Cn1cc(-c2ccncc2)c(-c2ccc(I)cc2)n1 [Example A-251, 4-[3-(4-iodophenyl)-1-methyl-1H-pyrazol-4-yl]pyridine] | 87 |  |
| 259 |  | CN(C)CCNc1cc(-c2c[nH]nc2-c2ccc(F)cc2)ccn1 [Example A-264, N′-[4-[3-(4-fluorophenyl)-1H-pyrazol-4-yl]-2-pyridinyl]-N,N-dimethyl-1,2-ethanediamine] | 61 |  |
| 539 |  | Fc1ccc(-c2n[nH]cc2-c2ccnc(NCCN3CCOCC3)c2)cc1 [Example A-266, N-[4-[3-(4-fluorophenyl)-1H-pyrazol-4-yl)-2-pyridinyl]-4-morpholineethanamine] | 0 |  |
| > 10000 |  | Fc1ccc(-c2nn(CCN3CCOCC3)cc2-c2ccnc(F)c2)cc1 [Example A-269, 4-[2-[3-(4-fluorophenyl)-4-(2-fluoro-4-pyridinyl)-1H-pyrazol-1-yl]ethyl]morpholine] | 51 |  |
